Activity calls are given as the source filed them. The calls are words filed in the database; no cut-off is given here.
Key:
[1] = system: MUGMel1; test: Cytotoxicity against human MUGMel1 cells assessed as reduction in cell viability after 24 hrs by EZ4U reagent based spectrophotometric method; type: functional; details: MUGMel1, 24 h
[2] = system: MUGMel2; test: Cytotoxicity against human MUGMel2 cells harboring NRAS pQ61K mutant assessed as reduction in cell viability after 48 hrs by EZ4U reagent based spectrophotometric method; type: functional; details: MUGMel2, 48 h
[3] = system: SBcl2; test: Cytotoxicity against human SBcl2 cells harboring NRAS Q61I mutant assessed as reduction in cell viability after 72 hrs by EZ4U reagent based spectrophotometric method; type: functional; details: SBcl2, 72 h
[4] = system: WM793; test: Cytotoxicity against human WM793 cells harboring BRAF V600E mutant assessed as reduction in cell viability after 24 hrs by EZ4U reagent based spectrophotometric method; type: functional; details: WM793, 24 h
[5] = system: WM793; test: Cytotoxicity against human WM793 cells harboring BRAF V600E mutant assessed as reduction in cell viability after 48 hrs by EZ4U reagent based spectrophotometric method; type: functional; details: WM793, 48 h
[6] = system: WM793; test: Cytotoxicity against human WM793 cells harboring BRAF V600E mutant assessed as reduction in cell viability after 72 hrs by EZ4U reagent based spectrophotometric method; type: functional; details: WM793, 72 h
[7] = system: MRC5; test: Cytotoxicity against human MRC5 cells assessed as reduction in cell viability after 72 hrs by EZ4U reagent based spectrophotometric method; type: functional
[8] = system: MUGMel2; test: Induction of apoptosis in human MUGMel2 cells assessed as necrotic cells at IC50 concentration after 6 hrs by Annexin V/SYTOX Green based flow cytometric analysis (reference value: 0.3%); type: functional
[9] = system: WM793; test: Induction of apoptosis in human WM793 cells assessed as viable cells at IC50 concentration after 6 hrs by Annexin V/SYTOX Green based flow cytometric analysis (reference value: 96.2%); type: functional
[10] = system: WM793; test: Induction of apoptosis in human WM793 cells assessed as early apoptotic cells at IC50 concentration after 6 hrs by Annexin V/SYTOX Green based flow cytometric analysis (reference value: 2.77%); type: functional
[11] = system: MUGMel1; test: Induction of apoptosis in human MUGMel1 cells assessed as necrotic cells at IC50 concentration after 24 hrs by Annexin V/SYTOX Green based flow cytometric analysis (reference value: 0.42%); type: functional
[12] = system: MUGMel2; test: Induction of apoptosis in human MUGMel2 cells assessed as viable cells at IC50 concentration after 24 hrs by Annexin V/SYTOX Green based flow cytometric analysis (reference value: 85.95%); type: functional
[13] = system: SBcl2; test: Induction of apoptosis in human SBcl2 cells assessed as late apoptotic cells at IC50 concentration after 24 hrs by Annexin V/SYTOX Green based flow cytometric analysis (reference value: 22.96%); type: functional
[14] = system: WM164; test: Induction of apoptosis in human WM164 cells assessed as viable cells at IC50 concentration after 24 hrs by Annexin V/SYTOX Green based flow cytometric analysis (reference value: 94.62%); type: functional
[15] = system: WM793; test: Induction of apoptosis in human WM793 cells assessed as viable cells at IC50 concentration after 24 hrs by Annexin V/SYTOX Green based flow cytometric analysis (reference value: 96.52%); type: functional
[16] = system: WM793; test: Induction of apoptosis in human WM793 cells assessed as early apoptotic cells at IC50 concentration after 24 hrs by Annexin V/SYTOX Green based flow cytometric analysis (reference value: 2.64%); type: functional
[17] = system: MUGMel1; test: Induction of cell cycle arrest in human MUGMel1 cells assessed as increase in S phase at IC50 concentration after 24 to 48 hrs by propidium iodide staining based flow cytometric analysis; type: functional
[18] = system: WM164; test: Antitumour activity against human WM164 cells xenografted in NU(NCr)-Foxn1 mouse assessed as increase in necrotic cells at 1 to 4 ug/g administered for three consecutive days with 1 day interval for four cycle by hematoxylin and eosin staining based microscopic analysis; type: functional
[19] = system: WM164; test: Antitumour activity against human WM164 cells xenografted in NU(NCr)-Foxn1 mouse assessed as increase in caspase -activity at 1 to 4 ug/g administered for three consecutive days with 1 day interval for four cycle by hematoxylin and eosin staining based microscopic analysis; type: functional, cell-based
[20] = system: WM793; test: Induction of apoptosis in human WM793 cells assessed as up regulation of NOXA protein expression at IC50 concentration after 24 hrs by Western blot analysis; type: functional, cell-based
[21] = system: WM793; test: Induction of apoptosis in human WM793 cells assessed as effect on BAX mRNA expression at IC50 concentration after 6 to 24 hrs by RT-qPCR analysis; type: functional, cell-based
[22] = system: WM164; test: Induction of apoptosis in human WM164 cells assessed as effect on BAD mRNA expression at IC50 concentration after 6 to 24 hrs by RT-qPCR analysis; type: functional, cell-based
[23] = system: SBcl2; test: Induction of apoptosis in human SBcl2 cells assessed as effect on BAX mRNA expression at IC50 concentration after 6 to 24 hrs by RT-qPCR analysis; type: functional, cell-based
[24] = system: MUGMel1; test: Induction of apoptosis in human MUGMel1 cells assessed as effect on BAX mRNA expression at IC50 concentration after 6 to 24 hrs by RT-qPCR analysis; type: functional, cell-based
[25] = system: WM164; test: Induction of apoptosis in human WM164 cells assessed as up regulation of NOXA at IC50 concentration after 6 to 24 hrs by RT-qPCR analysis; type: functional, cell-based
[26] = system: MUGMel2; test: Induction of apoptosis in human MUGMel2 cells assessed as up regulation of NOXA at IC50 concentration after 6 to 24 hrs by RT-qPCR analysis relative to control; type: functional
[27] = system: WM164; test: Induction of apoptosis in human WM164 cells treated with scrambled si-RNA assessed as caspase -activity at IC50 concentration after 24 hrs by Western blot analysis; type: functional, cell-based
[28] = system: SBcl2; test: Induction of apoptosis in human SBcl2 cells treated with scrambled si-RNA assessed as caspase -activity at IC50 concentration after 24 hrs by Western blot analysis; type: functional, cell-based
[29] = system: WM164; test: Induction of apoptosis in human WM164 cells treated with scrambled si-RNA assessed as up regulation of NOXA protein expression at IC50 concentration after 24 hrs by Western blot analysis; type: functional, cell-based
[30] = system: SBcl2; test: Induction of apoptosis in human SBcl2 cells assessed as effect on PUMA protein expression at IC50 concentration after 24 hrs by Western blot analysis; type: functional, cell-based
[31] = system: SBcl2; test: Induction of apoptosis in human SBcl2 cells assessed as effect on BAD protein expression at IC50 concentration after 24 hrs by Western blot analysis; type: functional, cell-based
[32] = system: MUGMel2; test: Induction of apoptosis in human MUGMel2 cells assessed as effect on BAX protein expression at IC50 concentration after 24 hrs by Western blot analysis; type: functional, cell-based
[33] = system: MUGMel1; test: Induction of apoptosis in human MUGMel1 cells assessed as effect on BAD protein expression at IC50 concentration after 24 hrs by Western blot analysis; type: functional, cell-based
[34] = system: WM164; test: Antitumour activity against human WM164 cells xenografted in NU(NCr)-Foxn1 mouse assessed as increase in fibrosis at 1 to 4 ug/g administered for three consecutive days with 1 day interval for four cycle by hematoxylin and eosin staining based microscopic analysis; type: functional, cell-based
[35] = Toxicity in NU(NCr)-Foxn1 mouse xenografted with SBcl2 assessed as weight loss at 2 ug/g administered for three consecutive days with 1 day interval for four cycle; details: in vivo

Work on `CC(C)=CC[C@@H](OC(=O)C=C(C)C)C1=CC(=O)c2c(O)ccc(O)c2C1=O` [DIMETHYLACRYLSHIKONIN] yielded an IC50 [1] of 1900 nM, an IC50 [2] of 2300 nM and an IC50 [3] of 1200 nM. The IC50 [4] was 1200 nM, the IC50 [5] was 800 nM and the IC50 [6] was 700 nM. For the same molecule, the IC50 [7] was “Not Active”, the Activity [8] was 0.39% and the Activity [9] was 88.54%. For the same molecule, the Activity [10] was 8.45%, the Activity [11] was 0.15% and the Activity [12] was 45.04%. The Activity [13] was 77.12%, the Activity [14] was 75.03% and the Activity [15] was 83.29%. The Activity [16] was 13.71%, the Activity [17] was “Active” and the Activity [18] was 60%. The Activity [19] was “Active”, the Activity [20] was “inactive” and the Activity [21] was “inactive”. The Activity [22] was “inactive”, the Activity [23] was “inactive” and the Activity [24] was “inactive”. For the same molecule, the Activity [25] was “Active”, the “fold change (FC)” value [26] was 6 and the Activity [27] was “inactive”. The Activity [28] was “inactive”, the Activity [29] was “Active” and the Activity [30] was “inactive”. The Activity [31] was “inactive”, the Activity [32] was “inactive” and the Activity [33] was “inactive”. For the same molecule, the Activity [34] was “Active” and the Activity [35] was “Non-Toxic”.
